The source of these data is patent publication US5437980A, “Phenanthridium dye staining of nucleic acids in living cells” (Molecular Probes, Inc., priority 1993, dated 1995).

The test system of experiment [1] is tissue culture cells. The experiment can be described thus: Entry into / staining pattern of tissue culture cells. It counts as cell-based. The source says: In some tissue culture cells, the pattern of staining is different from that observed in plant cells or bacteria. In the former case, cells are usually loaded with a brief pulse of dye, followed by a chase of buffered saline solution. These cells show a pattern of staining first in numerous intracellular compartments; e.g. lysosomes. In addition to staining these organelles first, the dyes also undergo a spectral shift to shorter wavelengths when associated with this "early-labeled compartment." If the same cells are exposed to pulses of higher concentrations of the 5-DAPP/LIVE dyes, the staining appears in the mitochondria (tubular structures that are labeled with rhodamine 123) and then, finally, in the nucleus, where it stains the nucleoli very brightly. Nucleoli are the most prominently stained area of higher eukaryotic cells, while the nuclei and cytosol usually stain in a hazy or punctate pattern in these cells. […] In plant tissues distinct nuclei tend to label uniformly, but there is frequently significant binding of the dye to cell walls. The plant cells are usually dark except for cell walls and nuclei. The characteristic binding morphology obtained using the 5-DAPP/LIVE dyes thus makes them useful in certain circumstances for identifying the type of cell in a mixed population of cells.

The test system of experiment [2] is peripheral blood lymphocytes. The experiment can be described thus: Staining of peripheral blood lymphocytes, fluorometer (Example 11). The format is cell-based, goat. The settings on record: on the scale of seconds. How it is done: Peripheral blood lymphocytes (PBL) are isolated from fresh heparinized goat blood and resuspended in buffer consisting of 135 mM NaCl, 5 mM KCl, 20 mM HEPES, 1 mM CaCl2, 1 mM MgCl2, pH 7.4 (HBSS+). The cells are resuspended to 10^6 mL (as determined by direct microscopic count using a standard hemocytometer) in a final volume of 3 mL in the above buffer in a quartz cuvette. 5-DAPP/LIVE dye stocks are prepared to final concentrations of 2 mM in DMSO. 3 μL of the octidium dye stock solution is injected into the cuvette to a final concentration of 2 μM. In a fluorometer, the sample is excited at 520 nm and fluorescence emission is monitored at 600 nm over the time required for the fluorescence signal to become stable. Hexidium, butidium and ethidium bromide are injected into separate samples of PBL to determine the relative rates of uptake for these stains. The volume of dye solution added to the cuvette is corrected by a factor relating the absorbance of the dye to the absorbance of a 2 mM octidium solution.

Experiment [3] has as its system epidermal tissue of the bulb, Alium spp. Put plainly: Staining of plant cell tissue (Example 6). It counts as cell-based. The conditions noted are these: 10 μM dye, 30 min, room temperature. The procedure: A small section of tissue from the bulb is removed with a razor blade. 0.5 mL of a 10 μM solution of the 5-DAPP/LIVE dye in distilled water is dispensed into a small glass dish. The epidermal tissue is cut into sections and placed in the dye solution. The tissue is stained for 30 min at room temperature in the dark then the tissue preparation is mounted in the presence of the dye between a coverglass and the slide.

The subject of experiment [4] is free-living ciliate and flagellate protozoans. The experiment can be described thus: Staining of protozoa (Example 7). It counts as cell-based. The settings on record: 1 μL of 10 mM dye in 1 mL culture, 10 min, ambient temperature. The procedure: 1 μL of 10 mM the 5-DAPP/LIVE dye stock is added to 1 mL of protozoan culture. The medium is incubated for 10 min at ambient temperature. 15 μL of this preparation is mounted with dye between a coverglass and the slide. Using this procedure, the nuclei of most cells of the free-living ciliate and flagellate protozoans are stained under these conditions.

For experiment [5], the system named is gram-negative bacteria. The conditions noted are these: mild conditions; application Ser. No. 08/047,683; cited from earlier work.
Experiment [6] concerns Bacillus cereus. The experiment can be described thus: Relative rate and extent of dye uptake into living Bacillus cereus (Example 2, FIG. 1). The settings on record: 2 μM dye, 23° C. It counts as cell-based. The procedure:
FIG. 1. Relative Uptake of Dyes into Living Cells. Uptake of ethidium, butidium, hexidium and octidium by Bacillus cereus as described in Example 2.
Bacillus cereus is grown in nutrient broth to log phase, washed by centrifugation, and resuspended in water to a density of 5×10^6 cfu/mL (as determined in Example 1). One centimeter pathlength acrylic cuvettes containing 3 mL of cell suspension are placed in a fluorescence spectrophotometer equipped with a temperature regulated cuvette holder and magnetic stirrer. The suspensions are brought to 23° C. prior to dye addition. To a cuvette of 3 mL bacteria suspension is added 3 μL of 2 mM dye stock solutions in DMSO to give a final dye concentration of 2 μM to produce the maximum attainable fluorescence/cell at the 600 nm emission wavelength (determined as in Example 1). The peak fluorescence excitation and emission wavelengths are determined by scanning the spectrum of the dye in suspensions of Bacillus cereus incubated for 30 min with the dye. Fluorescence intensity of the suspensions is measured using 488 nm excitation and 600 nm emission wavelengths. Sampling of fluorescence is carried out at 5 or 10 Hz until the fluorescence signal appears to stabilize.

Experiment [7] relates to rainbow trout gonad cells (RTG-2). The experiment can be described thus: Staining followed by fixation (Example 13). It counts as cell-based. The conditions noted are these: 1 μM, 30 min, room temperature. How it is done:
Adherent rainbow trout gonad cells (RTG-2) are grown at 20° C. until about 25% confluent. The cells are labeled by incubation in HBSS- containing 1 μM hexidium at room temperature for 30 min. The cells are subsequently washed free of hexidium with HBSS-, followed by phosphate-buffered saline, pH 7.4 (PBS), and fixed in 2% formaldehyde in PBS for 15 min at room temperature. Cell nuclei and cytoplasmic fluorescence are observed in the fluorescence microscope using fluorescein long-pass or rhodamine filter sets.

Experiment [8] has as its system living cells. Put plainly: Entry into / staining of living cells, general. The format is cell-based. The conditions noted are these: general summary.
Experiment [9] has as its system Saccharomyces. The experiment can be described thus: Staining of yeast (Example 5). The format is cell-based. The conditions noted are these: 10 μM dye, 30 min, 37° C. The procedure:
Yeast cells are washed by centrifugation and then resuspended in a solution of 2% glucose and 10 mM Na-HEPES, pH 7.4 to a cell density of between 5×10^5 and 2×10^6 cells/mL optical density at 410 nm (previously calibrated with YPD agar plate colony counts). Sufficient 10 mM stock solution of the 5-DAPP/LIVE dye in DMSO is added to effect a final concentration of 10 μM of the dye in the medium. The suspension is incubated for 30 min at 37° C. then 15 μL are placed between a coverglass and the microscope slide. The cellular fluorescence is observed using fluorescein (long-pass emission) or rhodamine filter sets.

The subject of experiment [10] is mushroom spores. The experiment can be described thus: Staining of mushroom spores by fluorescence microscopy (Example 4). The format is cell-based, agaric. The settings on record: 10-20 μM dye, 30 min, room temperature. The procedure:
Spores are rinsed from the gills on the underside of the cap of an agaric using a stream of distilled water. The spores are concentrated by centrifugation for 30 sec at 10,000 rpm in a microcentrifuge then a minimal volume of a 10-20 μM solution of the 5-DAPP/LIVE dye in distilled water is added. The suspension is incubated with the dye for 30 min at room temperature then a 15 μL aliquot of the suspension is mounted on between a coverglass and the slide for viewing in the presence of the dye. The cellular fluorescence is observed on a Zeiss Axioplan fluorescence microscope using fluorescein (long:pass emission) or rhodamine filter sets.

Entries after “also recorded” stand apart in the source; their conditions may differ.

Consider `CCCCCC[n+]1c(-c2ccccc2)c2cc(N)ccc2c2ccc(N)cc21` [hexidium], for which, in [1], the “staining of cells loaded to equilibrium / staining pattern” value is “both intense cytoplasmic and nuclear staining”. Further, the “distribution of dye into nucleus of lymphocytes” value in experiment [2] is recorded as “virtually instantaneous”. Further, the “cell wall / surface staining” value in experiment [3] is “more hazy surface staining occurs with ethidium and butidium than with hexidium or octidium”. In addition, the “staining of nuclei of protozoans” value in experiment [4] is “slightly better than octidium”. For the same molecule, the “staining of live gram-negative bacteria” value in experiment [5] is given as “lightly stain some gram negative organisms”. Further, in [6], the extent of loading entry was “optimal”. Also, in experiment [6] (488 nm excitation, 600 nm emission), the “rate of dye loading” value is listed as “increases with carbon chain length”. Further, in experiment [7], the “difference between live loaded cells and cells fixed with 2% formaldehyde” value is “essentially no difference”. Further, in [8], the membrane permeability entry is listed as “marked enhancement of membrane permeability in all systems”. In addition, the “entry into / staining of live cells” value in [8] (several types of cells) was “enters many types of live cells quickly and is bright”. In addition, in experiment [9], the “staining distribution and intensity” value was “less of a hazy cytoplasmic stain and more distinct nuclei”. For the same molecule, the “staining of spores (in words)” value in [10] is listed as “stains all spores brightly; also recorded: stained most effectively”.
